Data set [1] is described as follows: Drug recovery in Wistar rat urine assessed as retention time treated with (2S)-Pterosin at 100 mg/kg, po administered via gavage measured up to 24 hrs by HRESIMS analysis. In kind it is ADME, organism-based. Further details: dose 100 mg/kg, route oral; call rule not given here. The note with it: in vivo.
Data set [2] can be described thus: Drug recovery in Wistar rat urine treated with (2S)-Pterosin at 100 mg/kg, po administered via gavage measured up to 24 hrs by reverse-phase HPLC analysis. The note with it: in vivo. It is filed as ADME, organism-based. On the set-up: dose 100 mg/kg, route oral.
A short description of data set [3]: Cytotoxicity against human HL60 cells. In kind it is cell-based. The note with it: HL-60.
For the next data set, the system named is HeLa. In words: Cytotoxicity against human HeLa cells. In kind it is cell-based.
Data set [4] in a line: Drug recovery in Wistar rat urine assessed as retention time at 100 mg/kg, po administered via gavage measured up to 24 hrs by HRESIMS analysis. It is filed as ADME, organism-based. On the set-up: dose 100 mg/kg, route oral. The note with it: in vivo.
Data set [5] can be described thus: Drug recovery in Wistar rat urine at 100 mg/kg, po administered via gavage measured up to 24 hrs by HRESIMS analysis. Further details: dose 100 mg/kg, route oral. The note with it: read-out: Drug recovery. In kind it is ADME, organism-based.
Data set [6] can be described thus: Drug recovery in Wistar rat urine at 100 mg/kg, po administered via gavage measured up to 24 hrs by reverse-phase HPLC analysis. In kind it is ADME, organism-based. The note with it: in vivo. On the set-up: dose 100 mg/kg, route oral.

From ChEMBL document CHEMBL3526012, “Metabolism of (2S)-pterosin A: identification of the phase I and phase II metabolites in rat urine” (Drug Metab Dispos, 2012) come the findings set out here.

In brackets after ≈: the same amount, converted by molar mass.

Consider `Cc1c(CCO)c(CO)cc2c1C(=O)C(C)C2` (racemic), for which the Retention_time in data set [1] is 29.61 min. For the same molecule, the Drug recovery entry in data set [2] is reported as “metabolite_detected”.

Take `Cc1cc2c(c(C)c1CCO[C@@H]1O[C@H](C(=O)O)[C@@H](O)[C@H](O)[C@H]1O)C(=O)[C@](C)(CO)C2`: in data set [1], the Retention_time came out at 29.61 min. In addition, in data set [2], the Drug recovery result is “metabolite_detected”.

For the molecule `Cc1cc2c(c(C)c1CCO)C(=O)[C@](C)(CO[C@@H]1O[C@H](C(=O)O)[C@@H](O)[C@H](O)[C@H]1O)C2`, the Retention_time in data set [1] was found to be 32.08 min. Moreover, in data set [2], the Drug recovery entry is “metabolite_detected”.

Regarding `Cc1c2c(cc3c1C(=O)[C@](C)(CO)C3)COC(=O)C2`, the Retention_time in data set [1] was 23.37 min. Moreover, the Drug recovery result in data set [2] is recorded as “metabolite_detected”.

For `Cc1cc2c(c(C)c1CCO)C(=O)C(C)C2` (racemic), the Retention_time in data set [1] was found to be 49.54 min. It took 8.7 µg/mL (≈ 39.9 µM) to reach half-maximal inhibition in data set [3] (IC50). Besides, the Drug recovery result in data set [2] was “metabolite_detected”.

For `Cc1cc2c(c(C)c1CC(=O)O)C(=O)[C@](C)(CO)[C@@H]2O`, the Retention_time in data set [1] is reported as 26.11 min. Moreover, the Drug recovery entry in data set [2] is “metabolite_detected”.

`Cc1cc2c(c(C)c1CCO)C(=O)[C@@H](C)[C@@H]2O`: the Retention_time in data set [1] was determined as 27.6 min. Besides, in data set [2], the Drug recovery entry is reported as “metabolite_detected”.

Take `Cc1cc2c(c(C)c1CC(=O)O[C@@H]1O[C@H](C(=O)O)[C@@H](O)[C@H](O)[C@H]1O)C(=O)[C@](C)(CO)C2`: the Retention_time in data set [1] is given as 24.6 min. Moreover, the Drug recovery entry in data set [2] was “metabolite_detected”.

For the molecule `Cc1cc2c(c(C)c1C(O)CO)C(=O)C(C)C2` (racemic), the Retention_time in data set [1] turned out to be 35.09 min. In addition, in data set [2], the Drug recovery entry is “metabolite_detected”.

For the molecule `Cc1c2c(cc3c1C(=O)[C@](C)(CO)C3)C(=O)OCC2`, in data set [1], the Retention_time was found to be 29.61 min. Further, the Drug recovery entry in data set [2] was “metabolite_detected”.

As for `Cc1cc2c(c(C)c1CCO[C@@H]1O[C@H](C(=O)O)[C@@H](O)[C@H](O)[C@H]1O)C(=O)C(C)C2` (stereo partly drawn), the Retention_time in data set [1] was 44.2 min. Also, the Drug recovery entry in data set [2] was “metabolite_detected”.

In the case of `Cc1cc2c(c(C)c1CCO)C(=O)[C@](C)(CO)[C@@H]2O`, the Retention_time in data set [1] is recorded as 20.74 min. Further, the Drug recovery result in data set [2] is listed as “metabolite_detected”.

Turning to `Cc1cc2c(c(C)c1C)C(=O)[C@](C)(CO)[C@@H]2O`, the Retention_time in data set [1] was 46.2 min. Also, in data set [2], the Drug recovery entry is given as “metabolite_detected”.

Regarding `Cc1c(CCO)c(CO)cc2c1C(=O)[C@](C)(CO)C2`, in data set [1], the Retention_time was found to be 20.2 min. For the same molecule, the Drug recovery entry in data set [2] is reported as “metabolite_detected”.

On to `Cc1cc2c(c(C)c1CCO)C(=O)[C@H](C)[C@@H]2O`, for which the Retention_time in data set [1] is 25.27 min. Also, the Drug recovery entry in data set [2] is given as “metabolite_detected”.

For the molecule `COC(=O)Cc1c(C)cc2c(c1C)C(=O)[C@](C)(CO)C2`, the Retention_time in data set [1] is 45.33 min. Besides, the Drug recovery entry in data set [2] is given as “metabolite_detected”.

On to `Cc1cc2c(c(C)c1CC(=O)O)C(=O)C(C)C2` (racemic), for which 30 µg/mL (≈ 129 µM) corresponded to half-maximal inhibition with HeLa (IC50). In addition, the Retention_time in data set [1] was found to be 48.39 min. Besides, in data set [2], the Drug recovery result is “metabolite_detected”.

Regarding `Cc1cc2c(c(C)c1CCO)C(=O)[C@](C)(CO)[C@H]2O`, the Retention_time in data set [1] was determined as 14.12 min. Also, the Drug recovery entry in data set [2] is on record as “metabolite_detected”.

`Cc1cc2c(c(C)c1CC(=O)O)C(=O)[C@](C)(CO)C2`: the Retention_time in data set [1] was 37.27 min. The Drug recovery result in data set [2] was “metabolite_detected”.

On to `Cc1cc2c(c(C)c1CCO)C(=O)[C@](C)(CO)C2`, for which the Retention_time in data set [4] is 36.51 min. The dose excreted at 24 h in data set [5] turned out to be 2.64%. Moreover, the Drug recovery result in data set [6] is “Active”.
